Measurements as given in paper PMC12281487, “Discovery and Validation of a Novel Class of Necroptosis Inhibitors Targeting RIPK1” (ACS Chemical Biology, 2025).

Tests used:
recombinant hRIPK1 = molecular target: T1, recombinant hRIPK1 (Homo sapiens, UniProt Q13546); assay: ADP-Glo kinase assay; format: biochemical; conditions: for IC50: GST-RIPK1 75 nM
T1 construct: Th (between GST and residue 1); purchased BPS Bioscience 40371
T1 sequence (Q13546 1-327): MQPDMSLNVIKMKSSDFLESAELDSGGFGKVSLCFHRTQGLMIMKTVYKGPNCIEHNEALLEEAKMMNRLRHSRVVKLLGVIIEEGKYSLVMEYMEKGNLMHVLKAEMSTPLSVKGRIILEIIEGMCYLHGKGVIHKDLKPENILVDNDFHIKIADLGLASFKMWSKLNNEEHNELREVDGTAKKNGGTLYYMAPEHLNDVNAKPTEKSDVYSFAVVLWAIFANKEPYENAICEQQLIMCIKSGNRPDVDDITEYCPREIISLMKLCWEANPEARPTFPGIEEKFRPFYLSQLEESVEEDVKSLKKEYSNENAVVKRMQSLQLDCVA
Procedure: Compound potency and mode of inhibition against RIPK1 kinase activity were determined by using an ADP-Glo kinase assay (Promega). The assay was carried out in accordance with the manufacturer’s protocol. The initial kinase reaction was performed by incubating recombinant hRIPK1 (GST-Th-1-327 from BPS Bioscience ref 40371, 75 nM) with the inhibitor (0–100 μM) and ATP (0–500 μM) for 4 h at 24 °C in kinase assay buffer (50 mM HEPES pH 7.5, 50 mM NaCl, 30 mM MgCl2, 0.5 mg mL^–1 BSA, 0.02% CHAPS, and 4 mM DTT). Following this reaction, ADP-Glo Reagent and Kinase Detection Reagent were successively added and incubated for 1 and 0.5 h at 24 °C, respectively. A […] (kinase assay reaction/ADP-Glo Reagent/Kinase Detection Reagent) volume ratio of the kit’s components was used. Bioluminescence was measured on a Varioskan LUX multimode microplate reader with SkanIt Software. Experiments were conducted in triplicate. Concentration response curves and IC50 values were generated from nonlinear regression fits performed on GraphPad Prism 9.1.1. Additionally, the produced ADP concentration values were divided by the kinase reaction incubation time to calculate reaction velocity values and generate velocity curves. Velocity curves were fitted in Michaelis–Menten model on GraphPad Prism 9.1.1 to calculate the maximum velocity (v max) and Michaelis–Menten constant (K M) parameters.

kinase domain of RIPK1 = molecular target: T2, kinase domain of RIPK1 (Homo sapiens, UniProt Q13546); assay: SPR binding assay
T2 construct: recombinant human kinase domain of RIPK1 [RIPK1 (8-322)-Avi-His]; His (C); made in house; host or cells: Sf21 insect cells (baculovirus, Bac-to-Bac), co-expressed with Cdc37
T2 sequence (Q13546 8-322): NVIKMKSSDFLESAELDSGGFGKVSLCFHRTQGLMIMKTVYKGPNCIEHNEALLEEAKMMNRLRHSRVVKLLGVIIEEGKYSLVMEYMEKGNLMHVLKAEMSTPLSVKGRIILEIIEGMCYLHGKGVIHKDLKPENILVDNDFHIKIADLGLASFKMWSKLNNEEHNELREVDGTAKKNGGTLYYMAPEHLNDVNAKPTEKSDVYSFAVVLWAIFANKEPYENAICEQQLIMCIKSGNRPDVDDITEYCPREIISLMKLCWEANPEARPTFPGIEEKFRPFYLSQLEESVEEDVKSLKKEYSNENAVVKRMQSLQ
Procedure: Biotinylated recombinant human kinase domain of RIPK1 [RIPK1 (8-322)-Avi-His] was produced in Sf21 cells using baculovirus infection (Bac-to-Bac system, Thermo Fisher Scientific). Briefly, the RIPK1 (8-322)-Avi-His baculovirus was inoculated into Sf21 cells at 1.5 × 10^6 cells/mL, with 1 mL of virus added per 500 mL of cells for P2 virus generation. The cells were grown at 27 °C, 140 rpm for 72 h. RIPK1 was co-expressed with Cdc37 at a 4:1 (RIPK1/Cdc37) v/v virus ratio in Sf21 cells by inoculation with P2 virus (25 mL per 500 mL bottle). The cells were grown at 27 °C while shaking at 140 rpm for 48 h before being harvested by centrifugation at 6500 rpm and 4 °C for 15 min and stored at −80 °C before further purification. 25 μM of Nec-1s (ab221984, Abcam) was added to the culture medium at time of viral infection to stabilize protein.
Briefly, RIPK1 kinase domain was immobilized on a streptavidin-coated sensor chip (Cytiva). The surface was washed with 10 mM NaOH, 1 M NaCl, followed by immobilization of the protein. […] The reference spot was treated as described, omitting the injection of RIPK1. Compound concentration series was injected over the immobilized protein in increasing concentrations using multi cycle or single cycle kinetics in running buffer (10 mM HEPES, 150 mM NaCl, 0.05% Tween20, 0.1% DMSO, pH 7.4). A 1:1 Langmuir interaction model was fitted to the experimental traces, enabling determination of k on, k off, and K D.

RIPK1 = molecular target: T3, RIPK1 (Homo sapiens, UniProt Q13546); assay: Streptavidin mass shift assay (photoaffinity labeling, target engagement) in I2.1 cells; format: cell-based; conditions: competition assay, pretreatment before 7PQYnD photoaffinity labeling
T3 construct: Following incubation of I2.1 cells with the probe, irradiation to induce photocrosslinking; endogenous in cells; host or cells: I2.1 FADD-deficient Jurkat T cells (ATCC, CRL-2572)
T3 sequence (Q13546 1-671): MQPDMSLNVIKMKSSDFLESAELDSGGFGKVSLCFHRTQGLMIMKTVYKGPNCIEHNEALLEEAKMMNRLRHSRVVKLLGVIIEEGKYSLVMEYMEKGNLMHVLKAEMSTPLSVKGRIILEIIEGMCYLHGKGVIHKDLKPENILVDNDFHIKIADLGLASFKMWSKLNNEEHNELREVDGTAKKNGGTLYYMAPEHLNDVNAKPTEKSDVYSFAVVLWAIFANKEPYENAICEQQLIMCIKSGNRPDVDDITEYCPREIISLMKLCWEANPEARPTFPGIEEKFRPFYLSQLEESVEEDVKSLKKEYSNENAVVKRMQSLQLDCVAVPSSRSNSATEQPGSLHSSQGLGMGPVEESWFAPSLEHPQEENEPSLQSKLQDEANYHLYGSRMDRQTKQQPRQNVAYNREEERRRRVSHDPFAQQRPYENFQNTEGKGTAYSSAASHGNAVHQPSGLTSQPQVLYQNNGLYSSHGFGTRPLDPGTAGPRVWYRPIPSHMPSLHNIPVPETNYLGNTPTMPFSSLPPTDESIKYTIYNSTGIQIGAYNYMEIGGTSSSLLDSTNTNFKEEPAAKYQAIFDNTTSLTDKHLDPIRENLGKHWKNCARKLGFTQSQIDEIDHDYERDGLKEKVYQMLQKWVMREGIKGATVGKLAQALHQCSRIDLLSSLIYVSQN
Procedure: Target engagement was confirmed by Streptavidin mass shift assay, whereby lysates are incubated with streptavidin and subsequently separated by SDS–PAGE. The high stability of streptavidin at a range of temperatures, in various detergents and pH, in combination with the extremely high affinity for biotin means the streptavidin–biotin interaction is not separated during gel electrophoresis, resulting in a mass shift of biotin-labeled proteins in the presence of streptavidin, which can be visualized by Western blot (Figure a).
I2.1 cells were seeded in sterile six-well plates at a density of 2 × 10^6 cells per well and incubated at 37 °C overnight. 1000× stocks of the desired concentration of compound in DMSO were preprepared. […]
Cells were transferred to a microcentrifuge tube, centrifuged at 200g for 5 min, and media removed. […] Protein concentration was determined using the DC Protein Assay (Bio-Rad) in a 96-well plate as per the manufacturer’s instructions and the concentration adjusted to 1–2 mg mL^–1 using lysis buffer. […]
Samples were prepared by adding 4 μL of 4× loading buffer to 10 μL of the protein samples and boiling at 95 °C for 10 min. […] In-gel fluorescence was detected by using a Typhoon FLA 9500 biomolecular imager (750 V, 100 μm pixels). […]

C57BL/6J mice = assay: TNF-induced SIRS murine model; conditions: 5 mg/kg i.v. 15 min before TNF 0.5 mg/kg i.v., 3 mice per group
Procedure: Male C57BL/6J mice of 18–25 g were used at the age of 6–8 weeks. Three animals were included in each experimental group. All animal experiments were carried out with the permission of the local animal ethical committee in accordance with the EU Directive (2010/63/EU), Portuguese laws (DL113/2013, 2880/2015, 260/2016), and all relevant legislations. Animals received humane care in a temperature-controlled environment with a 12 h light–dark cycle and ad libitum access to pelleted chow and water, complying with the Institute’s guidelines, and as outlined in the “Guide for the Care and Use of Laboratory Animals” prepared by the National Academy of Sciences and published by the National Institutes of Health (NIH publication 86-23 revised 1985). […] TNF was diluted in sterile PBS. […] All injections were administered intravenously (i.v.).

With `CN1C(=O)C(Cc2c[nH]c3ccccc23)NC1=S` (centres unmarked) [Nec-1, Necrostatin 1] the IC50 (recombinant hRIPK1; ATP concentration 10 μM) was 2700 nM, the IC50 (recombinant hRIPK1; ATP concentration 500 μM) was 8100 nM and the “mode of inhibition with respect to ATP” value (recombinant hRIPK1; ATP concentrations 10–500 μM) was “competition with ATP”. For the same molecule, the koff (kinase domain of RIPK1; 1:1 fitting, 20 °C) was 0.011 ± 0.002 s⁻¹, the kon (kinase domain of RIPK1; 1:1 fitting, 20 °C) was 260000 M⁻¹ s⁻¹ and the Kd (kinase domain of RIPK1; absence of Nec-1, read-out: Binding affinity (pKD) (converted)) was 44.7 nM. For the same molecule, the “7PQYnD-mediated RIPK1 streptavidin band shift after pretreatment with competitor” value (RIPK1) was “retained” and the “protection from TNF-induced mortality (survival)” value (C57BL/6J mice) was “partially protected”.
